Test results as given in PMC6222509, “Dibasic Derivatives of Phenylcarbamic Acid against Mycobacterial Strains: Old Drugs and New Tricks?” (Molecules : A Journal of Synthetic Chemistry and Natural …, 2018).
Values after ≈ are worked out from the molar mass of the structure shown. Like-named read-outs stand apart in the source and are kept apart here.

Assays:
[1] = tested on: Mycobacterium tuberculosis CNCTC My 331/88 (identical with H37Rv and ATCC 2794; MTv H37Rv); test: in vitro antimycobacterial MIC, dilution micromethod in Šula's semisynthetic medium; type: cell-based; details: Mycobacterium tuberculosis
[2] = tested on: M. tuberculosis H37Ra ATCC 25177 (MTa H37Ra); test: in vitro antimycobacterial MIC, 96-well Middlebrook broth, alamarBlue; type: cell-based, Mycobacterium tuberculosis; details: 7-day cultivation, read-out: MIC MTa H37Ra 7-d
Description: In vitro susceptibitity of given mycobacteria to reference drugs isoniazid (INH), ethambutol (EMB), ofloxacin (OFLX) or ciprofloxacin (CPX) was tested as well (Table 6 and Table 7).
A value of a minimum inhibitory concentration (MIC) was the lowest concentration of a tested compound, (i) which inhibited growth of MTv H37Rv, MK 235/80, MK 6509/96 and MA 330/80, respectively; (ii) at which no visible growth of MTa H37Ra, MS, MK DSM as well as MM was observed.
The molecules 1a–p were also in vitro screened against an avirulent M. tuberculosis H37Ra ATCC 25177 (MTa H37Ra), M. kansasii DSM 44162 (MK DSM), M. smegmatis ATCC 700084 (MS) and M. marinum CAMP 5644 (MM), respectively, in the Department of Infectious Diseases and Microbiology (Faculty of Veterinary Medicine, University of Veterinary and Pharmaceutical Sciences in Brno, Czech Republic).
Determination of a minimum inhibitory concentration (MIC) against MTa H37Ra. The mycobacterium was grown on Middlebrook broth (MB; MiddleBrook Pharmaceuticals, Inc., Westlake, TX, USA), supplemented with Oleic-Albumin-Dextrose-Catalase (OADC) supplement (Difco, Lawrence, KS, USA) and salicylate-derived mycobactin J (2 μg/mL; Allied Monitor Inc., Fayette, MO, USA), an iron-binding siderophore.
At log phase growth, a culture sample (10 mL) was centrifuged at 15,000 rpm/20 min using a bench top centrifuge MPW-65R (MPW Med Instruments, Warsaw, Poland). Following removal of the supernatant, a pellet was washed in fresh liquid Middlebrook 7H9GC broth (MiddleBrook Pharmaceuticals, Inc.) and re-suspended in a fresh OADC-supplemented MB (10 mL).
Turbidity was adjusted to match the McFarland standard No. 1 [87] containing approximately 3 × 10^8 Colony Forming Units (CFU) with MB broth. Further 1:20 dilution of the culture was performed in MB broth.
Susceptibility of MTa H37Ra was investigated in a 96-well plate format. In the experiments, sterile deionized water (300 µL) was added to all outer-perimeter wells of the plates to minimize evaporation of the medium in test wells during incubation. Each evaluated compound (100 µL) was incubated with MTa H37Ra (100 µL). Dilutions of each compound were prepared in triplicate and final concentrations varied from 1000 μg/mL to 8 μg/mL. All tested molecules were dissolved in DMSO (Sigma-Aldrich, Irvine, UK), and subsequent dilutions were made in supplemented MB broth. The plates were sealed with parafilm and incubated at 37 °C for 7 days.
Following incubation, 10% addition a water-soluble dye, the alamarBlue reagent (AbD Serotec, Kidlington, UK) was mixed into each well. This resaurin-based reagent served as an oxidation-reduction indicator of metabolic function and cellular health in cell viability bioassays.
Absorbance readings at 570 nm and 600 nm were taken, initially for background subtraction and after 24h re-incubation. The subtraction is necessary for strongly colored compounds, where the color may interfere with the interpretation of any color change. For non-interfering compounds, a blue color in a well was interpreted as absence of growth and pink color was scored as growth.
The minimum inhibitory concentration (MIC) was defined as the lowest concentration of a compound, at which no visible bacterial growth was observed. In other words, the MIC was the lowest concentration that prevented visual color change from blue to pink.

[3] = tested on: M. kansasii CNCTC My 235/80 (identical with ATCC 12478; MK 235/80); test: in vitro antimycobacterial MIC, dilution micromethod in Šula's semisynthetic medium; type: cell-based, Mycobacterium kansasii
[4] = tested on: M. avium CNCTC My 330/80 (identical with ATCC 25291; MA 330/80); test: as above; type: cell-based, Mycobacterium avium
[5] = tested on: M. smegmatis ATCC 700084 (MS); test: in vitro antimycobacterial MIC, broth dilution micromethod in Middlebrook 7H9; type: cell-based, Mycobacterium smegmatis; details: Mycolicibacterium smegmatis, ATCC700084, 72 h
[6] = tested on: M. marinum CAMP 5644 (MM); test: as above; type: cell-based, Mycobacterium marinum
[7] = 336 h, 14-day cultivation, read-out: MIC MTv H37Rv 14-d
[8] = 504 h, 21-day cultivation, read-out: MIC MTv H37Rv 21-d
[9] = Mycobacterium tuberculosis, 168 h
[10] = Mycobacterium kansasii, ATCC12478, 168 h, 7-day cultivation, read-out: MIC MK 235/80 7-d
[11] = Mycobacterium kansasii, ATCC12478, 336 h, 14-day cultivation, read-out: MIC MK 235/80 14-d
[12] = Mycobacterium kansasii, ATCC12478, 504 h, 21-day cultivation, read-out: MIC MK 235/80 21-d
[13] = Mycobacterium avium, ATCC25291, 336 h, 14-day cultivation, read-out: MIC MA 330/80 14-d
[14] = Mycobacterium avium, ATCC25291, 504 h, 21-day cultivation, read-out: MIC MA 330/80 21-d
[15] = read-out: MIC MS 3-d, 3-day cultivation, 37 °C
[16] = Mycobacterium marinum, 504 h, 21-day cultivation, 28 °C, read-out: MIC MM 21-d
[17] = 3-day cultivation, 37 °C, read-out: MIC MS 3-d
[18] = Mycobacterium kansasii, ATCC12478, 168 h, read-out: MIC MK 235/80 7-d
[19] = Mycobacterium kansasii, ATCC12478, 336 h, read-out: MIC MK 235/80 14-d
[20] = Mycobacterium kansasii, ATCC12478, 504 h, read-out: MIC MK 235/80 21-d
[21] = Mycobacterium avium, ATCC25291, 336 h, read-out: MIC MA 330/80 14-d
[22] = Mycobacterium avium, ATCC25291, 504 h, read-out: MIC MA 330/80 21-d
[23] = Mycobacterium marinum, 504 h, read-out: MIC MM 21-d, 21-day cultivation, 28 °C
[24] = Mycobacterium kansasii, ATCC12478, read-out: MIC MK 235/80

SMILES | MIC [1, 7] [µM] | MIC [1, 8] [µM] | MIC [2, 9] [µM] | MIC [3, 10] [µM] | MIC [3, 11] [µM] | MIC [3, 12] [µM] | MIC [4, 13] [µM] | MIC [4, 14] [µM] | MIC [5, 15] [µM] | MIC [6, 16] [µM] | MIC [5, 17] [µM] | MIC [3, 18] [µM] | MIC [3, 19] [µM] | MIC [3, 20] [µM] | MIC [4, 21] [µM] | MIC [4, 22] [µM] | MIC [6, 23] [µM] | further results
CCCCOc1ccccc1NC(=O)OC(CN(CCC)CCC)CN1CCCC1 (stereo not drawn) [1a] | 32 (≈ 13.4 µg/mL) | 32 (≈ 13.4 µg/mL) | 213 (≈ 89.4 µg/mL) | 62.5 (≈ 26.2 µg/mL) | 62.5 (≈ 26.2 µg/mL) | 62.5 (≈ 26.2 µg/mL) | 125 (≈ 52.5 µg/mL) | 125 (≈ 52.5 µg/mL) | 213 (≈ 89.4 µg/mL) | 106 (≈ 44.5 µg/mL) |  |  |  |  |  |  |  | 
CCCCCOc1ccccc1NC(=O)OC(CN(CCC)CCC)CN1CCCC1 (stereo not drawn) [1b] | 16 (≈ 6.94 µg/mL) | 32 (≈ 13.9 µg/mL) | 52 (≈ 22.5 µg/mL) | 32 (≈ 13.9 µg/mL) | 32 (≈ 13.9 µg/mL) | 62.5 (≈ 27.1 µg/mL) | 62.5 (≈ 27.1 µg/mL) | 125 (≈ 54.2 µg/mL) |  | 52 (≈ 22.5 µg/mL) | 104 (≈ 45.1 µg/mL) |  |  |  |  |  |  | 
CCCCCCCOc1ccccc1NC(=O)OC(CN(CCC)CCC)CN1CCCC1.Cl.Cl (stereo not drawn) [1d, 1-[2-[({[2-(heptyl-oxy)phenyl]amino}carbonyl)oxy]-3-(dipropylammonio)propyl]pyrrolidinium dichloride] | 8 | 8 | 12.5 |  |  |  |  |  | 24.9 |  |  | 16 | 16 | 32 | 32 | 32 | 12.5 | 
CCCCOc1cccc(NC(=O)OC(CN(CCC)CCC)CN2CCCC2)c1 (stereo not drawn) [1e] | 16 (≈ 6.71 µg/mL) | 32 (≈ 13.4 µg/mL) | 8.1 (≈ 3.4 µg/mL) | 32 (≈ 13.4 µg/mL) | 32 (≈ 13.4 µg/mL) | 32 (≈ 13.4 µg/mL) | 62.5 (≈ 26.2 µg/mL) | 62.5 (≈ 26.2 µg/mL) |  | 32.5 (≈ 13.6 µg/mL) | 16.2 (≈ 6.8 µg/mL) |  |  |  |  |  |  | 
CCCCCCOc1cccc(NC(=O)OC(CN(CCC)CCC)CN2CCCC2)c1 (stereo not drawn) [1g] | 8 (≈ 3.58 µg/mL) | 16 (≈ 7.16 µg/mL) | < 3.8 | 16 (≈ 7.16 µg/mL) | 16 (≈ 7.16 µg/mL) | 16 (≈ 7.16 µg/mL) | 16 (≈ 7.16 µg/mL) | 16 (≈ 7.16 µg/mL) |  | < 3.8 | 15.4 (≈ 6.89 µg/mL) |  |  |  |  |  |  | MIC ([4]; Mycobacterium avium, ATCC25291, cultivation time not given, read-out: MIC MA 330/80): 16 µM (≈ 7.16 µg/mL)
CCCCCCCOc1cccc(NC(=O)OC(CN(CCC)CCC)CN2CCCC2)c1.Cl.Cl (stereo not drawn) [1h, 1-[2-[({[3-(heptyloxy)phenyl]amino}carbonyl)oxy]-3-(dipropylammonio)propyl]pyrrolidinium dichloride] | 4 | 8 | < 3.7 |  |  |  |  |  | 15 |  |  | 8 | 8 | 8 | 8 | 16 | < 3.7 | MIC [3, 24]: 8 µM; MIC ([4]; Mycobacterium avium, ATCC25291, read-out: MIC MA 330/80): 16 µM; MIC ([6]; 21-day cultivation, 28 °C, read-out: MIC MM 21-d): <3.7 µM
CCCCOc1ccccc1NC(=O)OC(CN(CCC)CCC)CN1CCCCCC1 (stereo not drawn) [1i] | 16 (≈ 7.16 µg/mL) | 32 (≈ 14.3 µg/mL) | 203 (≈ 90.9 µg/mL) | 32 (≈ 14.3 µg/mL) | 62.5 (≈ 28 µg/mL) | 62.5 (≈ 28 µg/mL) | 62.5 (≈ 28 µg/mL) | 125 (≈ 56 µg/mL) | 203 (≈ 90.9 µg/mL) | 51 (≈ 22.8 µg/mL) |  |  |  |  |  |  |  | 
CCCCCOc1ccccc1NC(=O)OC(CN(CCC)CCC)CN1CCCCCC1.O=C(O)C(=O)O (stereo not drawn) [1j, 1-[2-[({[2-(Pentyloxy)phenyl]amino}carbonyl)oxy]-3-(dipropylammonio)propyl]-azepanium oxalate] | 16 | 32 | 199 |  |  |  |  |  | 6.2 |  |  | 16 | 32 | 62.5 | 62.5 | 125 | 50 | 
CCCCCCOc1ccccc1NC(=O)OC(CN(CCC)CCC)CN1CCCCCC1 (stereo not drawn) [1k] | 8 (≈ 3.81 µg/mL) | 16 (≈ 7.61 µg/mL) | 195 (≈ 92.8 µg/mL) | 16 (≈ 7.61 µg/mL) | 32 (≈ 15.2 µg/mL) | 62.5 (≈ 29.7 µg/mL) | 32 (≈ 15.2 µg/mL) | 62.5 (≈ 29.7 µg/mL) |  | 98 (≈ 46.6 µg/mL) | 390 (≈ 186 µg/mL) |  |  |  |  |  |  | 
CCCCCCCOc1cccc(NC(=O)OC(CN(CCC)CCC)CN2CCCCCC2)c1.O=C(O)C(=O)O (stereo not drawn) [1l, 1-[2-[({[3-(hept-yloxy)phenyl]amino}carbonyl)oxy]-3-(dipropylammonio)propyl]azepanium oxalate] | 4 | 8 |  | 16 |  |  | 32 |  |  | 191 | 382 |  |  |  |  |  |  | MIC [2]: 96 µM; MIC ([3]; 14-day cultivation, read-out: MIC MK 235/80 14-d): 32 µM; MIC ([3]; 21-day cultivation, read-out: MIC MK 235/80 21-d): 32 µM; MIC ([4]; 21-day cultivation, read-out: MIC MA 330/80 21-d): 62.5 µM
CCCCOc1cccc(NC(=O)OC(CN(CCC)CCC)CN2CCCCCC2)c1 (stereo not drawn) [1m] | 8 (≈ 3.58 µg/mL) | 16 (≈ 7.16 µg/mL) | 15.4 (≈ 6.89 µg/mL) | 16 (≈ 7.16 µg/mL) | 16 (≈ 7.16 µg/mL) | 32 (≈ 14.3 µg/mL) | 16 (≈ 7.16 µg/mL) | 32 (≈ 14.3 µg/mL) |  |  | 30.7 (≈ 13.7 µg/mL) |  |  |  |  |  | 15.4 (≈ 6.89 µg/mL) | 
CCCCCOc1cccc(NC(=O)OC(CN(CCC)CCC)CN2CCCCCC2)c1.Cl.Cl (stereo not drawn) [1n, 1-[2-[({[3-(pentyloxy)phenyl]amino}carbonyl)oxy]-3-(di-propylammonio)propyl]azepanium dichloride] | 4 | 8 | 7.5 |  |  |  |  |  | 15 |  |  | 8 | 8 | 8 | 16 | 16 | 15 | MIC [3, 24]: 8 µM
CCCCCCOc1cccc(NC(=O)OC(CN(CCC)CCC)CN2CCCCCC2)c1.Cl.Cl (stereo not drawn) [1o, 1-[2-[({[3-(hexyloxy)phenyl]amino}-carbonyl)oxy]-3-(dipropylammonio)propyl]azepanium dichloride] | 8 | 16 | 7.3 |  |  |  |  |  | 7.3 |  |  | 8 | 16 | 16 | 16 | 16 | 7.3 | 
